This data set has as its system Vero cells. The data set is described as follows: Vero cell cytotoxicy assays (light microscopy of monolayers).

In the case of polysorbate 60 [PS-60], the sub-toxic dose (a small proportion of cells appeared to remain healthy) is 0.125%. The non-toxic dose (no changes compared to the untreated control) amounted to 0.06%.

(Values after patent publication US20130158127A1, “TEA TREE OIL DERIVATIVES” (priority 2011, published 2013).)
